According to US6171786A, “Methods for preventing multidrug resistance in cancer cells” (priority 1996, dated 2001):
Entries after “also recorded” stand apart in the source; their conditions may differ. Where two headings read alike, the source gives them in different places.

Tests used:
MDR1 expression [1] = assay: Inhibition of cytotoxic drug-induced MDR1 expression by protein kinase inhibitors (cDNA-PCR); details: for inhibition of MDR1 induction by cytotoxic drugs: concentration not stated
Description: Cells were plated in 6-well Falcon tissue culture plates at 3,300 cells per well, and incubated in the appropriate concentrations of drugs. Each of the protein kinase inhibitors to be tested were added at the appropriate final concentration 45 minutes prior to MDR1 induction by the addition of Ara-C or TPA, with the exception of herbimycin A, which was added 12 hours prior to Ara-C or TPA, and tyrphostins A25 and B46, which were each added 16 hours prior to MDR1 induction by the addition of Ara-C or TPA. Cells were incubated overnight (TPA) or for 10 hours (Ara-C) at 37° C./ 5% CO2 after the addition of the MDR1 inducing agents before harvesting for cDNA-PCR analysis.
In addition, the analysis of certain drugs imposed added requirements. For experiments using calphostin C, cells were incubated under direct white light illumination. For experiments using D,L-threo-sphingosine, the cell culture medium was pre-treated with the appropriate concentration of the drug for one hour at 37° C. with continuous gentle mixing. After this pretreatment, cells were resuspended in media supplemented with drug and incubated for 45 minutes as described above.
To further evaluate the capacity of protein kinase inhibitors to suppress MDR1 induction by cytotoxic drugs and PKC agonists, H-9 human T-cell leukemia cells were used in cDNA-PCR assays to examine induced MDR1 mRNA expression levels in the presence of protein kinase inhibitors.

[2] = test system: MDR1 expression (P-glycoprotein); assay: Induction of MDR1 expression by cytotoxic drugs (dye efflux, UIC2, cDNA-PCR); assay type: cell-based, human
Description: (§1) (Commercially-available kits (for example, from GIBCO/BRL, Gaithersburg, Md.) can be advantageously modified for making cDNA using random hexamers.) PCR is then performed using the following primers: […]
(§2) (where β2 M represents β2 microglobulin). PCR was performed for β2 M experiments under a regime consisting of 1 cycle comprising denaturation at 94° C. for 3 minutes, primer annealing at 60° C. for 30 seconds, and primer extension at 72° C. for 1 minute, followed by 19 cycles comprising denaturation at 94° C. for 30 seconds, primer annealing at 60° C. for 30 seconds, and primer extension at 72° C. for 1 minute, followed by a final cycle comprising denaturation at 94° C. for 30 seconds, primer annealing at 60° C. for 30 seconds, and primer extension at 72° C. for 5 minutes. MDR1 cDNA sequences were amplified using the identical protocol as for β2 M, but extending the amplification from 19 cycles to 25 cycles. In addition, the cDNA-PCR amplification protocol contained the following modifications: (i) Taq DNA polymerase was added to the PCR mixtures after initial heating of the samples to 94° C. (ii) The yield of the β2 -microglobulin-specific band, obtained after 22-28 cycles of PCR, was used as the primary criterion for equalizing the starting amounts of the cDNA templates in different preparations, in order to account for differential RNA degradation in cells subjected to different types of treatment. ^32 P-labeled PCR products were detected by autoradiography.
In particular PKC is activated by treatment with Ara-C. Therefore, experiments were performed to test whether Ara-C, which is not transported by P-glycoprotein, would have any effect on P-glycoprotein function in K562 leukemia cells.
Also assayed was whether drug-induced MDR1 expression was maintained after cytotoxic drug treatment. […] At different times, MDR1 expression in the surviving cells was analyzed by dye efflux and immunofluorescence labeling with UIC2 (FIG. 3C) or by cDNA-PCR (FIG. 4E).

MDR1 expression [3] = assay: Inhibition of cytotoxic drug-induced MDR1 expression by cytoplasmic calcium antagonists and calmodulin inhibitors; assay type: cell-based, human; details: H9; for inhibition of AraC-induced MDR1 gene expression: 10 μM calmidazolium chloride, 25 μM AraC
Description: H9 cells were incubated as described above in the presence of the following cytotoxic drugs: Ara C (at a concentration of 25 μM), Adriamycin (2 μM), bleomycin (100 μg/ml), 2-deoxyglucose (10 mM) and nocodazole (2.5 μM). In parallel, cultures of H9 cells were incubated in the presence of each of these cytotoxic drugs and of a highly specific chelator of intracellular calcium ion, 1, 2-bis(o-aminophenoxy)-ethane-N,N,N',N'-tetraacetic acid, tetra(acetoxymethyl)-ester (BAPTA/AM) at a concentration of 5 μM for 10 hrs. under the conditions described above. The inhibitor was added 45 min. prior to the addition of each of the MDR1 inducing agents. cDNA-PCR analysis, including gel electrophoresis and autoradiography as described above, was performed for each culture after drug treatment in the presence or absence of this chelator.
H9 cells were incubated as above with 25 μM AraC in the presence or absence of 10 μM calmidazolium chloride, and cDNA-PCR analysis as described above was performed.

[4] = test system: MDR1 expression (P-glycoprotein); assay: MDR1/P-glycoprotein expression in human cells treated with TPA, DOG, other agents (Rh123 accumulation, UIC2 staining, cDNA-PCR); assay type: cell-based
Description: KG1 cell line was maintained in Iscove's modified Dulbecco medium with 20% fetal calf serum (FCS) and 2 mM L-glutamine, 100 units/mL penicillin and 100 μg/mL streptomycin (GIBCO Laboratories, Grand Island, N.Y.).
PBL were treated with 1 ng/mL TPA; H9 and K562 cells with 10 ng/mL TPA; KG1a and KG1 cells with 100 ng/mL TPA and the other cell lines with 10 ng/mL TPA.
Mouse IgG2a isotype control antibody was obtained from Sigma. For staining of PBL with UIC2 mAb or isotype control, 10^6 cells were stained at 4° C. with 10 μg of the antibody for 30 minutes and, after two washes, stained for 30 minutes with 10 μg of FITC-conjugated goat anti-mouse IgG2a antibody (Fisher Scientific, Fairlawn, N.J.), diluted 1:2 with PBS plus 2% FCS. Cells were then washed twice with ice-cold PBS plus 2% FCS, stained with PI and kept on ice until analysis. Essentially the same protocol was used for staining of other cell types except that 2 μg of the secondary antibody were used per 10^6 cells. In some experiments, phycoerythrine (PE)-conjugated goat anti-mouse IgG2a was used as the secondary antibody; no PI was added in such cases.
as §1, §2
A functional assay was used to detect changes in P-glycoprotein activity in human PBL treated with different agents that induce lymphoid differentiation or activation, based on flow cytometric analysis of cellular accumulation of Rh123, which is a P-glycoprotein-transported fluorescent mitochondrial dye. In this assay, cells expressing little or no P-glycoprotein stain brightly with Rh123, whereas cells with higher levels of P-glycoprotein activity appear Rh123-dull. […] Since the best-known cellular effect of TPA is the stimulation of PKC, DOG (a cell-permeable diacylglycerol and a physiological stimulant of PKC) was also tested to determine its effects on Rh123 accumulation in PBL.

[5] = human leukemia and solid-tumor derived cell lines, short-term exposure
[6] = 50-100 μM tyrphostin, H-9 cells

CCCCCCCCCCCCC/C=C/[C@H](O)[C@@H](N)CO (relative stereo) [D,L-threo-sphingosine]
inhibition of Ara-C induced MDR1 expression (MDR1 expression [1]; 5 μM D,L-threo-sphingosine): little or no capacity to inhibit Ara-C induced MDR1 expression; also recorded: ineffective | Inhibition of Ara-C induced MDR1 expression (MDR1 expression [1]; 5 μM, H-9, 25 μM Ara-C 10 h): -

O=c1[nH]cc(F)c(=O)[nH]1 [5-fluorouracil]
MDR1 induction [2]: MDR1 induction, both at the mRNA and at the protein levels, was observed

COc1cccc2c1C(=O)c1c(O)c3c(c(O)c1C2=O)C[C@@](O)(C(=O)CO)C[C@@H]3O[C@H]1C[C@H](N)[C@H](O)[C@H](C)O1 [Adriamycin, Doxorubicin]
Rh123 or DiOC2(3) efflux by treated cells ([2]; K562): 3-10% | MDR1 mRNA expression ([2]; K562, cDNA-PCR): induce MDR1 mRNA expression | maintenance of MDR1 expression after removal of drug ([2]; K562 subpopulation, treated 3-5 days then drug-free): maintained for a least several weeks | MDR1 mRNA expression ([2]; KB-3-1 epidermoid carcinoma): MDR1 mRNA expression was induced | MDR1 induction [2, 5]: MDR1 induction, both at the mRNA and at the protein levels, was observed

CC(=O)OCOC(=O)CN(CC(=O)OCOC(C)=O)c1ccccc1OCCOc1ccccc1N(CC(=O)OCOC(C)=O)CC(=O)OCOC(C)=O [BAPTA/AM, 1,2-bis(o-aminophenoxy)ethane-N,N,N',N'-tetraacetic acid, tetra(acetoxymethyl)ester]
inhibition of MDR1 induction by 2-deoxyglucose (10 mM) (MDR1 expression [3]; 5 μM BAPTA/AM): completely abrogate the induction of MDR1 expression | inhibition of MDR1 induction by Adriamycin (2 μM) (MDR1 expression [3]; 5 μM BAPTA/AM): completely abrogate the induction of MDR1 expression | inhibition of MDR1 induction by Ara C (25 μM) (MDR1 expression [3]; 5 μM BAPTA/AM): completely abrogate the induction of MDR1 expression | inhibition of MDR1 induction by bleomycin (100 μg/ml) (MDR1 expression [3]; 5 μM BAPTA/AM): completely abrogate the induction of MDR1 expression | inhibition of MDR1 induction by different cytotoxic agents (MDR1 expression [3]; 5 μM BAPTA/AM): completely abrogated the induction of MDR1 expression | inhibition of MDR1 induction by nocodazole (2.5 μM) (MDR1 expression [3]; 5 μM BAPTA/AM): completely abrogate the induction of MDR1 expression | time prior to addition of MDR1 inducers within which inhibitory effect was detectable (MDR1 expression [3]; BAPTA/AM): ≤ 3 h

CCCCCCCC(=O)OCC(CO)OC(=O)CCCCCCC (centres unmarked) [DOG, 1,2-dioctanoylglycerol]
effect on P-glycoprotein activity (Rh123 accumulation) ([4]; human PBL): decrease Rh123 accumulation | MDR1 gene expression ([4]; normal human PBL and leukemia/solid tumor cell lines): increase MDR1 gene expression

CC1CNCCN1S(=O)(=O)c1cccc2cnccc12 (centres unmarked) [H7]
prevention of MDR1 induction by chemotherapeutic drugs (MDR1 expression [1]): prevent MDR1 induction by chemotherapeutic drugs | inhibition of MDR1 induction by cytotoxic drugs (MDR1 expression [1]): capable of inhibiting MDR1 induction by cytotoxic drugs

Clc1ccc(C(c2ccc(Cl)cc2)n2cc[n+](CC(OCc3ccc(Cl)cc3Cl)c3ccc(Cl)cc3Cl)c2)cc1 (centres unmarked) [calmidazolium chloride]
inhibition of AraC-induced MDR1 gene expression (MDR1 expression [3]): inhibit AraC-induced MDR1 gene expression | inhibition of AraC-induced MDR1 gene expression (MDR1 expression [3]; listed as Calmidazolium chloride): efficiently abrogate AraC induction of MDR1 expression

COc1c(CC(C)OC(=O)Oc2ccc(O)cc2)c2c3c(CC(C)OC(=O)c4ccccc4)c(OC)c(=O)c4c(O)cc(OC)c(c5c(OC)cc(O)c(c1=O)c52)c43 (centres unmarked) [calphostin C]
inhibitory capacity on Ara-C induced MDR1 expression (MDR1 expression [1]; 0.1 μM calphostin C + white light): greatly reduced | inhibition of Ara-C induced MDR1 expression (MDR1 expression [1]; 1 μM calphostin C + white light): capable of inhibiting MDR1 expression; also recorded: prevent MDR1 induction by chemotherapeutic drugs | inhibition of MDR1 induction by cytotoxic drugs (MDR1 expression [1]): capable of inhibiting MDR1 induction by cytotoxic drugs

N.N.[Cl][Pt][Cl] [cisplatin]
Rh123 or DiOC2(3) efflux by treated cells ([2]; K562): 3-10% | MDR1 mRNA expression ([2]; K562, cDNA-PCR): induce MDR1 mRNA expression | MDR1 induction [2, 5]: MDR1 induction, both at the mRNA and at the protein levels, was observed

COc1cccc2c1C(=O)c1c(O)c3c(c(O)c1C2=O)C[C@@](O)(C(C)=O)C[C@@H]3O[C@H]1C[C@H](N)[C@H](O)[C@H](C)O1 [daunorubicin]
MDR1 induction [2]: MDR1 induction, both at the mRNA and at the protein levels, was observed | MDR1 mRNA expression [2]: induce MDR1 mRNA expression | Rh123 or DiOC2(3) efflux by treated cells [2]: 3-10%

COc1cc([C@@H]2c3cc4c(cc3[C@@H](O[C@@H]3O[C@@H]5CO[C@@H](C)O[C@H]5[C@H](O)[C@H]3O)[C@H]3COC(=O)[C@H]23)OCO4)cc(OC)c1O [etoposide]
MDR1 induction [2]: MDR1 induction, both at the mRNA and at the protein levels, was observed

O=c1c(-c2ccc(O)cc2)coc2cc(O)cc(O)c12 [genistein]
Inhibition of Ara-C induced MDR1 expression (MDR1 expression [1]): + | inhibition of Ara-C induced MDR1 expression (MDR1 expression [1]): only weakly inhibited Ara-C induced MDR1 expression

COC1C=CC=C(C)C(=O)NC2=CC(=O)C=C(C2=O)C(OC)C(C)CC(OC)C(OC)C(C)C=C(C)C1OC(N)=O (centres unmarked) [herbimycin A]
inhibition of Ara-C induced MDR1 expression (MDR1 expression [1]; 0.35-3 μM herbimycin A): little or no capacity to inhibit Ara-C induced MDR1 expression; also recorded: ineffective at inhibiting MDR1 induction by Ara-C

NC(=O)NO [hydroxyurea]
MDR1 induction [2]: MDR1 induction, both at the mRNA and at the protein levels, was observed | MDR1 mRNA expression [2]: induce MDR1 mRNA expression | Rh123 or DiOC2(3) efflux by treated cells ([2]; K562): 3-10%

CN(Cc1cnc2nc(N)nc(N)c2n1)c1ccc(C(=O)N[C@@H](CCC(=O)O)C(=O)O)cc1 [methotrexate]
MDR1 induction [2]: MDR1 induction, both at the mRNA and at the protein levels, was observed | maintenance of MDR1 expression after removal of drug [2]: maintained for a least several weeks

N#CC(C#N)=Cc1cc(O)c(O)c(O)c1 [tyrphostin A25]
inhibition of Ara-C induced MDR1 expression (MDR1 expression [1]; [6]): strongly inhibit Ara-C induced MDR1 expression; also recorded: inhibit Ara-C induced MDR1 expression

N#CC(=Cc1ccc(O)c(O)c1)C(=O)NCCCc1ccccc1 [tyrphostin B46]
inhibition of Ara-C induced MDR1 expression (MDR1 expression [1]; [6]): strongly inhibit Ara-C induced MDR1 expression; also recorded: inhibit Ara-C induced MDR1 expression
